Data taken from patent US9708314B2, “Heterocyclic amide compound” (NISSAN CHEMICAL INDUSTRIES, LTD., priority 2013, dated 2017).

Experiments:
Format in all cases: in vivo
Apera spica-venti. = test: Test Example 4: herbicidal effect by application to foliage (diluvial soil, plastic box); details: application to foliage, application herbicide amount 320 g/ha
In short: (§1)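 Scores run from 0 (herbicidal ratio ≤5%) to 5 (≥90%, almost fully withered) and were assessed three weeks after foliar spraying. Seedlings had been raised for 14 days at 25-30° C in sterilized diluvial soil before treatment, with the emulsion diluted in water to the stated g/ha dose.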

Setaria viridis = test: as above; details: application to foliage, application herbicide amount 320 g/ha
In short: as §1

Digitaria ciliaris = test: as above; details: application to foliage, application herbicide amount 320 g/ha
In short: as §1

Alopecurus myosuroides = test: as above; details: application to foliage, application herbicide amount 320 g/ha
In short: as §1

Chenopodium album = test: as above; details: application to foliage, application herbicide amount 320 g/ha
In short: as §1

Lolium multiflorum Lam. = test: as above; details: application to foliage, application herbicide amount 320 g/ha
In short: as §1

[1] = system: Echinochloa crus-galli var. crus-galli; test: as above; details: application to foliage, application herbicide amount 320 g/ha
In short: as §1

Galium spurium = test: as above; details: application to foliage, application herbicide amount 320 g/ha
In short: as §1

Abutilon theophrasti = test: as above; details: application to foliage, application herbicide amount 320 g/ha
In short: as §1

Veronica persica = test: as above; details: application to foliage, application herbicide amount 320 g/ha
In short: as §1

Avena fatua = test: as above; details: application to foliage, application herbicide amount 320 g/ha
In short: as §1

Leptochloa chinensis = test: Test Example 3: herbicidal effect by application to foliage (Wagner pot, water depth 0.1-0.5 cm); details: Nineteenth Table; application herbicide amount 320 g/ha
In short: (§2)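 Seeds were sown in alluvial soil in Wagner pots, grown for 14 days at 25–30 °C, then sprayed uniformly on foliage with the emulsified compound diluted to a given rate per hectare. Injury was graded three weeks after treatment from 0 (≤5%) to 5 (≥90%).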

Cyperus difformis = test: as above; details: Nineteenth Table; application herbicide amount 320 g/ha
In short: as §2

[2] = system: Echinochloa crus-galli var. crus-galli; test: as above; details: Nineteenth Table; application herbicide amount 320 g/ha
In short: as §2

[3] = system: directly sowed Oryza sativa; test: Test Example 3: effect on crop by application to foliage (Wagner pot, water depth 0.1-0.5 cm); details: Nineteenth Table; application herbicide amount 320 g/ha
In short: as §2

Structure (SMILES)	L (Apera spica-venti.) herbicidal effect (Apera spica-venti.)	G (Setaria viridis) herbicidal effect (Setaria viridis)	F (Digitaria ciliaris) herbicidal effect (Digitaria ciliaris)	J (Alopecurus myosuroides) herbicidal effect (Alopecurus myosuroides)	O (Chenopodium album) herbicidal effect (Chenopodium album)	K (Lolium multiflorum Lam.) herbicidal effect (Lolium multiflorum Lam.)	H (Echinochloa crus-galli var. crus-galli) herbicidal effect [1]	Q (Galium spurium) herbicidal effect (Galium spurium)	M (Abutilon theophrasti) herbicidal effect (Abutilon theophrasti)	R (Veronica persica) herbicidal effect (Veronica persica)	I (Avena fatua) herbicidal effect (Avena fatua)	D (Leptochloa chinensis) herbicidal ratio grade (Leptochloa chinensis)	E (Cyperus difformis) herbicidal ratio grade (Cyperus difformis)	H (Echinochloa crus-galli var. crus-galli) herbicidal ratio grade [2]	b (directly sowed Oryza sativa) effect on crop grade [3]
Cc1nnc(NC(=O)c2ccc(C(F)(F)F)n3c(C4CCCC4)nnc23)o1 [1-026]	2 (Herbicidal ratio of 20% or more and less than 40%)	3 (Herbicidal ratio of 40% or more and less than 70%)	3 (Herbicidal ratio of 40% or more and less than 70%)	1 (Herbicidal ratio of 5% or more and less than 20%)	5 (Herbicidal ratio of 90% or more (almost completely withered))	1 (Herbicidal ratio of 5% or more and less than 20%)	3 (Herbicidal ratio of 40% or more and less than 70%)	2 (Herbicidal ratio of 20% or more and less than 40%)	3 (Herbicidal ratio of 40% or more and less than 70%)	5 (Herbicidal ratio of 90% or more (almost completely withered))	1 (Herbicidal ratio of 5% or more and less than 20%)	4 (Herbicidal ratio of 70% or more and less than 90%)	4 (Herbicidal ratio of 70% or more and less than 90%)	5 (Herbicidal ratio of 90% or more (almost completely withered))	4 (Herbicidal ratio of 70% or more and less than 90%)
CCOCc1nnc2c(C(=O)Nc3nnc(C)o3)ccc(C(F)(F)F)n12 [1-027]	3 (Herbicidal ratio of 40% or more and less than 70%)	4 (Herbicidal ratio of 70% or more and less than 90%)	5 (Herbicidal ratio of 90% or more (almost completely withered))	2 (Herbicidal ratio of 20% or more and less than 40%)	5 (Herbicidal ratio of 90% or more (almost completely withered))	1 (Herbicidal ratio of 5% or more and less than 20%)	5 (Herbicidal ratio of 90% or more (almost completely withered))	3 (Herbicidal ratio of 40% or more and less than 70%)	5 (Herbicidal ratio of 90% or more (almost completely withered))	5 (Herbicidal ratio of 90% or more (almost completely withered))	2 (Herbicidal ratio of 20% or more and less than 40%)	5 (Herbicidal ratio of 90% or more (almost completely withered))	5 (Herbicidal ratio of 90% or more (almost completely withered))	5 (Herbicidal ratio of 90% or more (almost completely withered))	3 (Herbicidal ratio of 40% or more and less than 70%)
Cc1nnc(NC(=O)c2ccc(C(F)(F)F)n3c(C4=NOC(C)(C)C4)nnc23)o1 [1-029]	1 (Herbicidal ratio of 5% or more and less than 20%)	4 (Herbicidal ratio of 70% or more and less than 90%)	5 (Herbicidal ratio of 90% or more (almost completely withered))	1 (Herbicidal ratio of 5% or more and less than 20%)	5 (Herbicidal ratio of 90% or more (almost completely withered))	1 (Herbicidal ratio of 5% or more and less than 20%)	5 (Herbicidal ratio of 90% or more (almost completely withered))	0 (Herbicidal ratio of 5% or less (almost no effect))	5 (Herbicidal ratio of 90% or more (almost completely withered))	5 (Herbicidal ratio of 90% or more (almost completely withered))	1 (Herbicidal ratio of 5% or more and less than 20%)	5 (Herbicidal ratio of 90% or more (almost completely withered))	4 (Herbicidal ratio of 70% or more and less than 90%)	4 (Herbicidal ratio of 70% or more and less than 90%)	4 (Herbicidal ratio of 70% or more and less than 90%)
CSCc1nnc2c(C(=O)Nc3nnc(C)o3)ccc(C(F)(F)F)n12 [1-030]	4 (Herbicidal ratio of 70% or more and less than 90%)	5 (Herbicidal ratio of 90% or more (almost completely withered))	5 (Herbicidal ratio of 90% or more (almost completely withered))	3 (Herbicidal ratio of 40% or more and less than 70%)	5 (Herbicidal ratio of 90% or more (almost completely withered))	3 (Herbicidal ratio of 40% or more and less than 70%)	5 (Herbicidal ratio of 90% or more (almost completely withered))	4 (Herbicidal ratio of 70% or more and less than 90%)	5 (Herbicidal ratio of 90% or more (almost completely withered))	4 (Herbicidal ratio of 70% or more and less than 90%)	4 (Herbicidal ratio of 70% or more and less than 90%)	5 (Herbicidal ratio of 90% or more (almost completely withered))	5 (Herbicidal ratio of 90% or more (almost completely withered))	5 (Herbicidal ratio of 90% or more (almost completely withered))	4 (Herbicidal ratio of 70% or more and less than 90%)
Cc1nnc(NC(=O)c2ccc(C(F)(F)F)n3c(CSCC(F)(F)F)nnc23)o1 [1-031]	1 (Herbicidal ratio of 5% or more and less than 20%)	4 (Herbicidal ratio of 70% or more and less than 90%)	4 (Herbicidal ratio of 70% or more and less than 90%)	1 (Herbicidal ratio of 5% or more and less than 20%)	5 (Herbicidal ratio of 90% or more (almost completely withered))	1 (Herbicidal ratio of 5% or more and less than 20%)	5 (Herbicidal ratio of 90% or more (almost completely withered))	3 (Herbicidal ratio of 40% or more and less than 70%)	5 (Herbicidal ratio of 90% or more (almost completely withered))	4 (Herbicidal ratio of 70% or more and less than 90%)	2 (Herbicidal ratio of 20% or more and less than 40%)	4 (Herbicidal ratio of 70% or more and less than 90%)	3 (Herbicidal ratio of 40% or more and less than 70%)	5 (Herbicidal ratio of 90% or more (almost completely withered))	2 (Herbicidal ratio of 20% or more and less than 40%)
CCSc1nnc2c(C(=O)Nc3nnc(C)o3)ccc(C(F)(F)F)n12 [1-032]	2 (Herbicidal ratio of 20% or more and less than 40%)	5 (Herbicidal ratio of 90% or more (almost completely withered))	5 (Herbicidal ratio of 90% or more (almost completely withered))	1 (Herbicidal ratio of 5% or more and less than 20%)	5 (Herbicidal ratio of 90% or more (almost completely withered))	1 (Herbicidal ratio of 5% or more and less than 20%)	5 (Herbicidal ratio of 90% or more (almost completely withered))	2 (Herbicidal ratio of 20% or more and less than 40%)	5 (Herbicidal ratio of 90% or more (almost completely withered))	4 (Herbicidal ratio of 70% or more and less than 90%)	2 (Herbicidal ratio of 20% or more and less than 40%)	5 (Herbicidal ratio of 90% or more (almost completely withered))	5 (Herbicidal ratio of 90% or more (almost completely withered))	5 (Herbicidal ratio of 90% or more (almost completely withered))	2 (Herbicidal ratio of 20% or more and less than 40%)
